From patent publication US10532987B2, “Compounds and methods for inducing browning of white adipose tissue” (GUANGZHOU INSTITUTES OF BIOMEDICINE AND HEALTH, CHINESE …, priority 2015, dated 2020) come the findings set out here.

SMILES strings stand for the structures.

In this assay the test system is Ucp1. The experiment in a line: UCP1 luciferase assay (Ucp1 up-regulation in differentiated inguinal adipocytes of Ucp1-luciferase knock-in mice). The note with it: Mus musculus, Adipocyte, 48 h, 2 days treatment, luciferase activity, read-out: Ucp1 activation fold/corresponding concentration. In kind it is cell-based. How it is done: TEST EXAMPLE 1 UCP1 Luciferase Assay
Evaluating Compounds that Induce Ucp1 Up-Regulation
Ucp1-luciferase knock-in mice will be housed in cages and fed on standard chow diets (the detailed procedures please see reference 14). The 8-week-old mice will be killed by the cervical dislocation and put into 75% alcohol for 5 minutes. The inguinal adipose tissue will be dissected out and transferred to the three 10-cm petri dishes and washed with PBS for three times. The adipose tissue will be dissected and minced on a 10-cm petri dish for several minutes and then pipetted into 20 ml 0.1% collagenase solution in 50 ml conical tubes and digested at 37° C. for 1 hour. Next, 20 ml culture medium will be added to terminate the digestion and centrifuged for 10 minutes at 1000 rpm respectively. The supernatants will be removed and the pellets re-suspended in 10 mL culture medium and plated into 10-cm plates. The cells will be left to adhere to the plates overnight and the culture medium will be changed every other day. The confluent cells will be trypsinized, counted and plated to 24-well plate (5×10^4 cells/well). The cells will be washed and re-fed the next day (as day −2). Two days later (day 0), the cells will usually become confluent and be induced to differentiate with MDIR medium. On day 2, the medium will be changed to IR medium and re-fed every 2 days. Complete differentiation is usually achieved by day 10. On day 10, the medium will be changed to the culture medium of 10% FBS/DMEM with indicated drugs along with the positive and negative controls for 2 days. The media will be removed and the cells washed with 1 ml PBS per well three times. Then 100 μl lysis buffer will be used to lyse the cells at 4° C. for 1 hour. 30 μl culture medium, 30 μl cell lysates and 60 μl Steady-Glo® Reagent were added to a well of 96-well-plate and the luminescence will be measured using a luminometer. The protein concentration will be determined using 20 μl cell lysates and specific activity of luciferase will be tabulated and data analyzed.

As to `COc1ccc(-c2csc(Nc3cccc(C)n3)n2)cc1OC` [Compound 10, 4-(3,4-dimethoxyphenyl)-N-(6-methylpyridin-2-yl)thiazol-2-amine], the fold induction at 3 µM was 3.8.
The same measure, in the same setting: with `Cc1cc(-c2csc(Nc3ccccn3)n2)ccc1N` [Compound 83, 4-(4-amino-3-methylphenyl)-N-(pyridin-2-yl)thiazol-2-amine] the figure was 6; with `CC(=O)OCc1ccc(-c2csc(Nc3ccccn3)n2)cc1` [Compound 60, 4-(2-(pyridin-2-ylamino)thiazol-4-yl)benzyl acetate], 2.6.
As for `COc1cc(-c2csc(Nc3ccccn3)n2)cc(OC)c1OC` [Compound 17, N-(pyridin-2-yl)-4-(3,4,5-trimethoxyphenyl)thiazol-2-amine], the fold induction at 1 µM turned out to be 1.9.
On to `CCOC(=O)COc1ccc(-c2csc(Nc3ccccn3)n2)cc1` [Compound 44, ethyl 2-(4-(2-(pyridin-2-ylamino)thiazol-4-yl)phenoxy)acetate], for which the fold induction at 3 µM worked out at 1.9.
Consider `COc1ccc(-c2csc(NC(C)=O)n2)cc1OC` [Compound 29, N-(4-(3,4-dimethoxyphenyl)thiazol-2-yl)acetamide], for which the fold induction at 0.3 µM amounted to 1.2.
As to `Clc1cccc(-c2csc(Nc3ccccn3)n2)c1Cl` [Compound 75, 4-(2,3-dichlorophenyl)-N-(pyridin-2-yl)thiazol-2-amine], the fold induction at 3 µM came out at 1.1.
`COc1ccc(-c2csc(Nc3nc4ccc(C)cc4s3)n2)cc1OC` [Compound 14, N-(4-(3,4-dimethoxyphenyl)thiazol-2-yl)-6-methylbenzo[d]thiazol-2-amine]: the fold induction at 3 µM turned out to be 2.4.
Consider `c1ccc(Nc2nc(-c3ccc(CN4CCOCC4)cc3)cs2)nc1` [Compound 54, 4-(4-(morpholinomethyl)phenyl)-N-(pyridin-2-yl)thiazol-2-amine], for which the fold induction at 1 µM was determined as 3.9.
For `O=C(Nc1ccc(Cl)cc1)c1csc(Nc2ccccn2)n1` [Compound 68, N-(4-chlorophenyl)-2-(pyridin-2-ylamino)thiazole-4-carboxamide], the fold induction at 3 µM stood at 1.3.
In the case of `c1ccc(-c2csc(Nc3ccccn3)n2)cc1` [Compound 4, 4-phenyl-N-(pyridin-2-yl)thiazol-2-amine], the fold induction at 3 µM turned out to be 4.1.
Take `CCOC(=O)N1CCC[C@H]1C(=O)Nc1nc(-c2ccc(OC)c(OC)c2)cs1` [Compound 71, (S)-ethyl 2-(4-(3,4-dimethoxyphenyl)thiazol-2-ylcarbamoyl)pyrrolidine-1-carboxylate]: the fold induction at 0.3 µM came out at 1.7.
Turning to `CN(C)c1ccc(-c2csc(Nc3ccccn3)n2)cc1` [Compound 16, 4-(4-(dimethylamino)phenyl)-N-(pyridin-2-yl)thiazol-2-amine], the fold induction at 3 µM is 5.1.
Take `CN1CCN(C(=O)c2ccc(-c3csc(Nc4ccccn4)n3)cc2)CC1` [Compound 59, (4-methylpiperazin-1-yl)(4-(2-(pyridin-2-ylamino)thiazol-4-yl)phenyl)methanone]: the fold induction at 1 µM amounted to 4.
In the case of `c1ccc(Nc2nc(-c3ccc(-c4ccncc4)cc3)cs2)nc1` [Compound 79, N-(pyridin-2-yl)-4-(4-(pyridin-4-yl)phenyl)thiazol-2-amine], the fold induction at 3 µM amounted to 1.8.
In the case of `COC(=O)c1ccc(-c2csc(Nc3ccccn3)n2)cc1` [Compound 48, methyl 4-(2-(pyridin-2-ylamino)thiazol-4-yl)benzoate], the fold induction at 3 µM is 6.
As to `COc1ccc(-c2csc(NC(=O)c3ccccn3)n2)cc1OC` [Compound 32, N-(4-(3,4-dimethoxyphenyl)thiazol-2-yl)picolinamide], the fold induction at 3 µM came to 2.6.
With `CCC(=O)Nc1ccc(-c2csc(Nc3ccccn3)n2)cc1` [Compound 38, N-(4-(2-(pyridin-2-ylamino)thiazol-4-yl)phenyl)propionamide], the fold induction at 3 µM was determined as 5.
With `COc1ccccc1-c1csc(Nc2ccccn2)n1` [Compound 24, 4-(2-methoxyphenyl)-N-(pyridin-2-yl)thiazol-2-amine], the fold induction at 3 µM is 2.7.
Consider `c1ccc(Nc2nc(-c3ccccn3)cs2)nc1` [Compound 27, N,4-di(pyridin-2-yl)thiazol-2-amine], for which the fold induction at 1 µM worked out at 3.3.
For the compound `O=C(NO)c1ccc(-c2csc(Nc3ccccn3)n2)cc1` [Compound 74, N-hydroxy-4-(2-(pyridin-2-ylamino)thiazol-4-yl)benzamide], the fold induction at 3 µM is 3.
On to `CC(C)NC(=O)c1ccc(-c2csc(Nc3ccccn3)n2)cc1` [Compound 57, N-isopropyl-4-(2-(pyridin-2-ylamino)thiazol-4-yl)benzamide], for which the fold induction at 3 µM is 3.5.
The same measure, in the same setting: with `FC(F)(F)Oc1ccc(-c2csc(Nc3ccccn3)n2)cc1` [Compound 23, N-(pyridin-2-yl)-4-(4-(trifluoromethoxy)phenyl)thiazol-2-amine] the figure was 4.
Consider `COc1ccc(-c2nc(Nc3ccccn3)sc2C)cc1OC` [Compound 19, 4-(3,4-dimethoxyphenyl)-5-methyl-N-(pyridin-2-yl)thiazol-2-amine], for which the fold induction at 1 µM is 1.6.
With `COc1cccc(-c2csc(Nc3ccccn3)n2)c1` [Compound 3, 4-(3-methoxyphenyl)-N-(pyridin-2-yl)thiazol-2-amine], the fold induction at 1 µM was found to be 2.8.
Turning to `c1ccc(Nc2nc(-c3ccc(-c4ccsc4)cc3)cs2)nc1` [Compound 76, N-(pyridin-2-yl)-4-(4-(thiophen-3-yl)phenyl)thiazol-2-amine], the fold induction at 3 µM is 1.8.
On to `COCCOCCNC(=O)c1ccc(-c2csc(Nc3ccccn3)n2)cc1` [Compound 62, N-(2-(2-methoxyethoxy)ethyl)-4-(2-(pyridin-2-ylamino)thiazol-4-yl)benzamide], for which the fold induction at 3 µM is 2.2.
For `Clc1ccc(-c2csc(Nc3ccccn3)n2)cc1` [Compound 63, 4-(4-chlorophenyl)-N-(pyridin-2-yl)thiazol-2-amine], the fold induction at 3 µM stood at 5.9.
Take `COc1cc(Br)ccc1-c1csc(Nc2ccccn2)n1` [Compound 25, 4-(4-bromo-2-methoxyphenyl)-N-(pyridin-2-yl)thiazol-2-amine]: the fold induction at 3 µM is 1.3.
As for `COc1cc(OC)cc(-c2csc(Nc3ccccn3)n2)c1` [Compound 18, 4-(3,5-dimethoxyphenyl)-N-(pyridin-2-yl)thiazol-2-amine], the fold induction at 3 µM was 5.3.
With `Nc1ccc(-c2csc(Nc3ccccn3)n2)cc1` [Compound 35, 4-(4-aminophenyl)-N-(pyridin-2-yl)thiazol-2-amine], the fold induction at 1 µM stood at 3.7.
In the case of `Cc1ccc(-c2csc(Nc3ccccn3)n2)cc1C` [Compound 80, 4-(3,4-dimethylphenyl)-N-(pyridin-2-yl)thiazol-2-amine], the fold induction at 3 µM was determined as 1.5.
Consider `N#Cc1ccc(-c2csc(Nc3ccccn3)n2)cc1` [Compound 49, 4-(2-(pyridin-2-ylamino)thiazol-4-yl)benzonitrile], for which the fold induction at 1 µM was determined as 3.9.
Take `c1ccc(Nc2nc(-c3ccc4c(c3)CCC4)cs2)nc1` [Compound 81, 4-(2,3-dihydro-1H-inden-5-yl)-N-(pyridin-2-yl)thiazol-2-amine]: the fold induction at 1 µM is 2.
Regarding `Fc1ccc(-c2csc(Nc3ccccn3)n2)cc1` [Compound 22, 4-(4-fluorophenyl)-N-(pyridin-2-yl)thiazol-2-amine], the fold induction at 1 µM was 3.9.
